The results in this text go back to PubChem BioAssay AID675 (The Scripps Research Institute Molecular Screening Center, 2007).

Activity calls are given as the source filed them.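 How the source made its calls: active means EC50 at or below a set limit for turning on the RORA orphan receptor reporter; inactive means the rest.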

In the assay the target is Nuclear receptor ROR-alpha (Homo sapiens) (UniProt P35398). In words: activators of RORA ligand-binding domain fusion – cell-based, CHO-K1, Gal4-RORA LBD, luciferase luminescence, counter-screen for SF-1 activator project, dose response (AID 675). To be noted: CHO-K1 RORA luciferase reporter, luminescence activation. Background: The purpose of a counterscreen is to sort out artefacts and off-target activity.
Sequence of Nuclear receptor ROR-alpha (Homo sapiens) (P35398 whole entry, looked up, the tested form may be a part): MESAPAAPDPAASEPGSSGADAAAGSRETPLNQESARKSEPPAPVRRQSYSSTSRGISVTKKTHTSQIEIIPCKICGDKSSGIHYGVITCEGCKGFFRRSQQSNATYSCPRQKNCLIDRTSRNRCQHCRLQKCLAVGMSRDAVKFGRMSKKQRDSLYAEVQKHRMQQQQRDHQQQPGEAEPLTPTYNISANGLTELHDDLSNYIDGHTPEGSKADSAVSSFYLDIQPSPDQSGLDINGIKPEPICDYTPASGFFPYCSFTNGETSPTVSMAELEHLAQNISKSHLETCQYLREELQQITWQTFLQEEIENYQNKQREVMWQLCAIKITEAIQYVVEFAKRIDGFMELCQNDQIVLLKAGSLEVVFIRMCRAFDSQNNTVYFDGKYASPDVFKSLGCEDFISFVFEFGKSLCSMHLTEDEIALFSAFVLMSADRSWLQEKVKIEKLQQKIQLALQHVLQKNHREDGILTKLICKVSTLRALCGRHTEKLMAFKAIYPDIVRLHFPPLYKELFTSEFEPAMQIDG
Take `CC1(C)CC(=O)C(C=Nc2ccc3[nH]ncc3c2)=C(O)C1`: the half-maximal effective concentration (EC50) (in general, the concentration that produces a half-maximal response) was 9.88 µM.

With `COC(=O)c1ccc(/C(O)=C(\C#N)c2nc3ccccc3s2)cc1`, the concentration for a half-maximal effect (EC50) was 1.61 µM.

On to `C/C(N)=C(/C#N)C(=O)CSc1ccc2c(c1)OCCO2`, for which the EC50 was 1.17 µM.

As to `COc1cc(C2C3C(=O)N(c4ccccc4)C(=O)C3ON2c2ccccc2)ccc1O` (stereo not drawn), the EC50 is > 33 µM (inactive).

In the case of `Cc1ccc(C2/C(=C(\O)c3cnn(-c4ccccc4)c3C)C(=O)C(=O)N2CCN(C)C)o1` (stereo not drawn), the half-maximal effective concentration (EC50) is 4.13 µM.

As to `CC1(C)CC(=O)C(C=Nc2ccccc2)=C(O)C1`, the EC50 is > 99 µM (inactive).

As for `COc1ccc(C(=O)/C=C/Nc2cccc(C)n2)cc1OC`, the concentration giving a half-maximal response (EC50) is 0.749 µM.

For `O=C1CCCC(O)=C1C=Nc1ccc(O)cc1`, the EC50 was > 99 µM (inactive).
